System: Stress protein genes
Experiment: DNA chip mRNA expression in yeast, stress protein genes (Table 6)
Assay type: cell-based, Saccharomyces cerevisiae S288C
Procedure, shortened: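 Measured as treated-to-untreated fluorescence ratio on a full-genome yeast DNA chip. Cells (S288C, YPD, 25° C.) were exposed in log phase for two hours to one chemical, dosed to curb growth without killing.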

Measured: The level of expressed mRNA in the presence of chemical substance/The level of expressed mRNA in the absence of chemical substance

COc1cc(CNC(=O)CCCCC=CC(C)C)ccc1O [(12), 8-methyl-N-vanillyl-6-nonenamide]
1.5: yeast gene YCL035C | yeast gene YER057C | yeast gene YHL028W
1.7: yeast gene YBR169C | yeast gene YCR060W | yeast gene YDR519W
0.6: yeast gene YEL039C | yeast gene YIL011W | yeast gene YPR005C
1.4: yeast gene YDR155C | yeast gene YMR173W | yeast gene YNL160W
1.9: yeast gene YER103W | yeast gene YLL026W
1.0: yeast gene YAL015C | yeast gene YBR067C | yeast gene YDR033W | yeast gene YFL016C | yeast gene YGL181W | yeast gene YHR104W | yeast gene YJL128C | yeast gene YJL159W | yeast gene YJR045C | yeast gene YLL024C | yeast gene YLL039C | yeast gene YMR186W
1.6: yeast gene YLR109W
1.2: yeast gene YAL005C | yeast gene YDL022W | yeast gene YOR208W | yeast gene YPR026W
0.8: yeast gene YBR044C | yeast gene YDR077W | yeast gene YGL073W | yeast gene YJR090C | yeast gene YKL164C | yeast gene YMR021C | yeast gene YNL064C | yeast gene YPL059W | yeast gene YPL140C | yeast gene YPL240C
0.9: yeast gene YDL025C | yeast gene YDR293C | yeast gene YDR436W | yeast gene YDR513W | yeast gene YEL030W | yeast gene YGL115W | yeast gene YJL165C | yeast gene YKL161C | yeast gene YKL163W | yeast gene YOL064C | yeast gene YPL194W | yeast gene YPL223C
1.3: yeast gene YBR126C | yeast gene YDR098C | yeast gene YFL020C | yeast gene YIR037W | yeast gene YKL210W | yeast gene YML070W | yeast gene YOL161C | yeast gene YOR027W
4.3: yeast gene YFL014W
1.1: yeast gene YBL075C | yeast gene YBL093C | yeast gene YCR083W | yeast gene YER042W | yeast gene YGR088W | yeast gene YHL046C | yeast gene YHR057C | yeast gene YIL033C | yeast gene YIR038C | yeast gene YJL158C | yeast gene YLL060C | yeast gene YML007W | yeast gene YPL106C
0.5: yeast gene YCR021C | yeast gene YOR010C
0.7: yeast gene YBR054W | yeast gene YER125W | yeast gene YHR030C | yeast gene YKR053C | yeast gene YLR006C | yeast gene YLR259C | yeast gene YNR076W | yeast gene YOR008C
1.8: yeast gene YDR258C | yeast gene YFR052W
0.4: yeast gene YOR009W
2.0: yeast gene YNL241C
16.3: yeast gene YBR072W

From US8192962B2, “Processes for detecting toxic substances” (Daikin Industries, Ltd., priority 2001, dated 2012)
